Assay results from US9238654B2, “Singleton inhibitors of sumoylation enzymes and methods for their use” (CITY OF HOPE, priority 2010, dated 2016).

Legend:
[1] = molecular target: T1, SUMO E1 or SUMO E2 (Homo sapiens, UniProt Q9UBE0+Q9UBT2); assay: SUMOylation HTS assay, SUMO (AlphaScreen-BSA), SUMOylation of RanGAP1; type: biochemical
T1 sequence (Q9UBE0 1-346): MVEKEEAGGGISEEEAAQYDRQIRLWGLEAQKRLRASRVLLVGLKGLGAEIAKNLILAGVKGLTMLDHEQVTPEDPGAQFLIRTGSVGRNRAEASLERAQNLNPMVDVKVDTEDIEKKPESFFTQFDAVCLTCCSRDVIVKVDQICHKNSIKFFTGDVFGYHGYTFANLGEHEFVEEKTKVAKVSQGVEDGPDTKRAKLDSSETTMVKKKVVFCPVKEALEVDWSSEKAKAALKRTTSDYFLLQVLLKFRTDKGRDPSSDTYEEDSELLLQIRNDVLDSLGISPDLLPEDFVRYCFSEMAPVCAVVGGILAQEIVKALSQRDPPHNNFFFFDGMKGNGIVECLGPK
T1 sequence (Q9UBT2 1-640): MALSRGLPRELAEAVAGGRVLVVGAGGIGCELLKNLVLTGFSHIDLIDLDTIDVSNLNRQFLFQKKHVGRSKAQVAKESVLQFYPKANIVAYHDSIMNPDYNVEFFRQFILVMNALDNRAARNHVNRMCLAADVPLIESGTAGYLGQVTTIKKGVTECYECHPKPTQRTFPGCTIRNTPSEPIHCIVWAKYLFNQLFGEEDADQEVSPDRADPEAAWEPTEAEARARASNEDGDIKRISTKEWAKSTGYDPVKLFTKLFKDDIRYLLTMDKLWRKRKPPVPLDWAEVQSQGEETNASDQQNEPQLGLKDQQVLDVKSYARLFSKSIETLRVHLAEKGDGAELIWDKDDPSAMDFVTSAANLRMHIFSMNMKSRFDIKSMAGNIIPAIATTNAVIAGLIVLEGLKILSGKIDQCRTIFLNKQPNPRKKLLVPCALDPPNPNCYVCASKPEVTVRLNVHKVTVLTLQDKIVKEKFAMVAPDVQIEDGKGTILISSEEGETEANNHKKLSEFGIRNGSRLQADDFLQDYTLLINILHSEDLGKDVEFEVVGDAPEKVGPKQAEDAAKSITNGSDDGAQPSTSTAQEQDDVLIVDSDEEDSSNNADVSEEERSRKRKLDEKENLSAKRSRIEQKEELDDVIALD
Description: (§1) A lead compound was selected, and is identified herein as MLS0437113 (FIG. 3).
(§2) Each singleton analog was analyzed to determine its inhibitory effect on SUMOylation and ubiquitination, tested both in the HTS format and gel-based format (FIG. 4).

[2] = molecular target: T2, SUMO E1 (Homo sapiens, UniProt Q9UBE0+Q9UBT2); assay: Gel-based assay of SUMO-RanGap1, E1-SUMO and E2~SUMO thioester conjugate formation; type: biochemical; settings: strength in words
T2 sequence (Q9UBE0 1-346): T1 sequence (Q9UBE0 1-346)
T2 sequence (Q9UBT2 1-640): T1 sequence (Q9UBT2 1-640)
Description: FIG. 4 illustrates a representative assay to determine the efficacy of E1 inhibitors generated from a singleton probe. Stereo-specific effects of this series in inhibiting the SUMO E1. […] Negative and positive controls were reactions in the absence and presence of ATP. […] The compounds that are immediately right to them in the assays, MLS-0437114 and MLS-0437121, are their stereo-isomers, respectively. The stereo chemistry was determined by X-ray crystallography.
as §2
The molecular weight (MW), IC50, strength of SUMO-RanGap1 and SUMO-E2 conjugation inhibition of the SUMO E1 inhibitors derived from the singleton scaffold (see Table 1 above for structures) generated according to the embodiments herein are shown in Table 3 below.

[3] = Stability in Tris buffer, parent remaining by HPLC-MS; type: physicochemical; settings: 60 min, 50 mM Tris; for % Remaining after 60 min in 50 mM Tris (+BSA): with BSA; for % Remaining after 60 min in 50 mM Tris (−BSA): without BSA
Description: Stable compounds in Tris were tested with and without BSA. Amount of parent compound remaining was quantified using HPLC-MS (area under the curve (AUC) method).

[4] = molecular target: T3, ubiquitin E1 (Homo sapiens, UniProt P22314); assay: Poly-ubiquitination assay using ubiquitin, ubiquitin E1, Ubc5 and Apc11; type: biochemical; settings: SUMO E1 versus ubiquitin E1, derived from the IC50s of HTS assays
T3 sequence (P22314 1-1058): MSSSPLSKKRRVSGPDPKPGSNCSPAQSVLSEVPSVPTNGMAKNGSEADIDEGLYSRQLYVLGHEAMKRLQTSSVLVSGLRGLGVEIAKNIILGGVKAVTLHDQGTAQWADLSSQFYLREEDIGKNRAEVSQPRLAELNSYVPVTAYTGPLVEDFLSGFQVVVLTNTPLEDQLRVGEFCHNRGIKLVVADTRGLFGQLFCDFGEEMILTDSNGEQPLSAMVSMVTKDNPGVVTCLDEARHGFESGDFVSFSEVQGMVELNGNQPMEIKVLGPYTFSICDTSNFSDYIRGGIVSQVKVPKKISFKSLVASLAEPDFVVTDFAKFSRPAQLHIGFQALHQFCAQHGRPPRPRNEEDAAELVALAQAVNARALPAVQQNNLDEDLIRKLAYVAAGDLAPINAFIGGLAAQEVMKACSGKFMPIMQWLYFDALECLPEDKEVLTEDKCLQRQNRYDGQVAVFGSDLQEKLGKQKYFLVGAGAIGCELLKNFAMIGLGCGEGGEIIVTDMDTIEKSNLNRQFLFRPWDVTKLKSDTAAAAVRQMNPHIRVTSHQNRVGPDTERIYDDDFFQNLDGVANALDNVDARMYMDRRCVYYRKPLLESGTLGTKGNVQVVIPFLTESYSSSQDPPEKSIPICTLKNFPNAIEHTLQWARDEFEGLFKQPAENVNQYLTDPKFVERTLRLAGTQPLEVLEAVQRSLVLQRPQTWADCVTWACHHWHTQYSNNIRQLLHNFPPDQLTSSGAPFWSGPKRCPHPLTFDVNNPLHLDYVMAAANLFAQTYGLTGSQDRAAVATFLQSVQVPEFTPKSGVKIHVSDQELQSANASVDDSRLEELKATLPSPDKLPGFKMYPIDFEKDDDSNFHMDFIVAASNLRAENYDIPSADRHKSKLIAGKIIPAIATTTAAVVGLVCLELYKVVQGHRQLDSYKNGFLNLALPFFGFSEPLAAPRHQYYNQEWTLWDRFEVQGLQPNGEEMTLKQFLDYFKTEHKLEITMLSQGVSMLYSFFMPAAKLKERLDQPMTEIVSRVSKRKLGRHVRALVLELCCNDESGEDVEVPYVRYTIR
Description: as §1, §2

| SUMO (AlphaScreen-BSA) IC50 [1] | SUMO-RanGap1 and SUMO-E2 Conjugation Inhibition [2] | % Remaining after 60 min in 50 mM Tris (+BSA) [3] | % Remaining after 60 min in 50 mM Tris (−BSA) [3] | SUMO/ubiquitin Selectivity [4] | SMILES |
| --- | --- | --- | --- | --- | --- |
| 9.2 µM | Very Weak |  |  |  | COC(=O)C1=C(C(=O)OC)C2([C@H](Cc3ccccc3)Nc3ccc(C)cc3)C=CC1O2 (stereo partly shown) [MLS-0437110] |
| 3.3 µM | Strong |  |  |  | C=CC[C@@H](Nc1ccccc1)C12C=CC(O1)C(C(=O)OC)=C2C(=O)OC (stereo partly shown) [MLS-0437111] |
| 9.5 µM | Very Weak |  |  |  | COC(=O)C1=C(C(=O)OC)C2([C@@H](Cc3ccccc3)Nc3ccc(OC)cc3)C=CC1O2 (stereo partly shown) [MLS-0437118] |
| 12.5 µM | Weak |  |  |  | C=CC[C@@H](Nc1ccc(Cl)cc1)C12C=CC(O1)C(C(=O)OC)=C2C(=O)OC (stereo partly shown) [MLS-0437126] |
| 11.5 µM | Weak |  |  |  | C=CC[C@H](Nc1ccc(Cl)cc1)C12C=CC(O1)C(C(=O)OC)=C2C(=O)OC (stereo partly shown) [MLS-0437127] |
|  |  | 87% | 84% | >100 | COC(=O)C1=C(C(=O)OC)C2(C(Nc3ccccc3)c3ccc(F)cc3)C=C[C@@H]1O2 (stereo partly shown) [MLS-0437320] |
|  |  | 64% | 82% | >100 | COC(=O)C1=C(C(=O)OC)C2(C(Nc3ccccc3)c3ccc(OC(F)(F)F)cc3)C=C[C@@H]1O2 (stereo partly shown) [MLS-0437321] |
